One data set deals with SOX18[109] HMG fragment (Mus musculus (Mouse), UniProt P43680). Nature of the data set: FP DNA-binding competition assay, SOX18[109] HMG fragment. The conditions noted are these: for remaining activity at 50 µM / remaining activity at 200 µM: SOX18/DNA binding; for remaining activity at 50 µM: read-out: FP bound fraction (%) 50 μM; for remaining activity at 200 µM: read-out: FP bound fraction (%) 200 μM; for SOX18-DNA binding inhibition (FP, words): SAR library, SOX18[109]. The protocol: Mouse SOX HMG fragments. The HMG domains of mouse SOX2 (Group B), SOX11 (Group C), SOX6 (Group D), SOX9 (Group E), SOX18 (Group F) and SOX15 (Group G) were BP cloned from cDNA templates (IMAGE cDNA clone IDs: Sox18: 3967084; Sox9: 5354229; Sox4: 6822618) into a pDONRTM221 pENTRY vector, sequenced and recombined into a pETG20A or a pHisMBP expression plasmid using Gateway®LR Technology (Ng et al., 2012). Constructs were transformed into Escherichia coli BL21(DE3) cells (Luria-Bertani, 100 μg/ml Ampicillin).
Sequence of SOX18[109] HMG fragment (P43680 69-177): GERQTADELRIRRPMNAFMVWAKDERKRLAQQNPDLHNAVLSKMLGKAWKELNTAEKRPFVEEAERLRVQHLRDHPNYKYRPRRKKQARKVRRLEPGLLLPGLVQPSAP
(§1) The DNA-binding competition assay was performed in black 384-well plates, with mouse full length SOX18, or SOX-HMG fragments. All experiments were performed using a fluorescently-labelled Prox1-DNA element. Controls consisted of free labelled DNA (low FP milli-Polarization index, mP), labelled DNA in presence of protein (negative control, high mP), and labelled DNA and protein in presence of competing excess of unlabelled DNA (positive control, low mP)
(§2) The DNA-binding competition assay was performed in 25 uL, in black 384-well plates, using either 30 mM HEPES (N-2-Hydroxyethylpiperazine-N′-2-Ethanesulfonic Acid) (pH 7.5, with 100 mM KCl, 40 mM NaCl, 10 mM NH4OAc, […], 2 mM MgCl2, 0.5 mM EDTA, 0.01% NP-40) for mouse full length SOX18, or Tris-NaCl (10 mM Tris pH 8.0 and 100 mM NaCl) for SOX-HMG fragments. All experiments were performed using a 40 bp double-stranded Prox1-DNA element with 5′ fluorescein amidite (FAM) label (Sigma Proligo or InVitrogen). Optimum binding levels were obtained at 200 nM of mouse full length SOX18 and 60 nM of SOX-HMG fragment, in presence of 5 nM labelled DNA. Controls consisted of free labelled DNA (low FP milli-Polarization index, mP), labelled DNA in presence of protein (negative control, high mP), and labelled DNA and protein in presence of 400 time competing excess of unlabelled DNA (positive control, low mP). Depending on compound, final DMSO concentrations ranged from 2 to 3.33% v/v. After mixing protein, DNA probe and compound, plates were sealed and briskly agitated in the dark for 5 minutes at room temperature, 10 minutes at 37° C., and 30 minutes at room temperature, before reading fluorescence polarization on a Tecan M1000Pro (λexc=485 nm, λem=525 nm). All experiments were performed in triplicates.
In order to pinpoint the possible binding site of the small molecules, the FP assays were repeated with a shorter, DNA-binding centred protein fragment. The DNA binding domain of SOX TFs consists of the […] amino acid long High Mobility Group (HMG) box. The 109 amino-acid long SOX18 fragment (SOX18[109]) corresponds to residues 69-177 (numbering by mouse SOX18), which includes the HMG box (residues 78-149) and N- and C-terminal flanking sequences of 9 and 28 amino-acids, respectively.

Data set [1] in a line: Cytotoxicity assay (Alamar blue), HEK293. Type of data set: cell-based. Particulars: human, HEK293 cells; HEK293, 24 h. The protocol: Cell toxicity was determined using Alamar blue, as previously described (McMillian et al., 2002). COS-7 cells were seeded as 7000 cells per well in black wall clear bottom 96-well plates in DMEM medium (Life Technologies Australia) with 10% FBS. HepG2 and HEK293 cell lines, from ATCC, were seeded as 5000 cells per well in black wall clear bottom 384-well cell culture plates in DMEM with 1% FBS. Cells were cultured for 24 h at 37° C., 5% CO2. A serial dilution of compounds was added, with a final DMSO concentration adjusted to 0.5% v/v. Cells were incubated for another 24 h. 1 Triton X-100 was used as negative control, and 0.5% DMSO as positive control. 5 μM Alamar blue was added to each well and fluorescence was measured (λexc=560 nm, λem=590 nm) after 2 h incubation at 37° C. Data were analysed using Prism software.

Data set [2] in a line: Cytotoxicity assay (Alamar blue), HepG2. In kind it is cell-based. The conditions noted are these: human, HepG2 cells; HepG2, 24 h.
Another data set concerns the target full-length mouse SOX18 (Mus musculus (Mouse), UniProt P43680). The data set is described as follows: FP DNA-binding competition assay, full-length SOX18. The conditions noted are these: full-length mouse SOX18, Prox1-DNA probe; for IC50: read-out: FP IC50 ± SD. The protocol: Full-length mouse SOX18. A N-terminally tagged mouse HIS-GST-SOX18 was recombinantly expressed in Sf9 cells, purified on GST resin (GE Healthcare Life Sciences, Sweden) and eluted in Tris buffer (50 mM Tris, 500 mM NaCl, 10 mM reduced glutathione, pH 8.0). cDNA clone of mouse Sox18 was PCR amplified and cloned into the pOPIN-GST vector, to generate N-terminally tagged HIS-GST-SOX18. A sequence verified construct was co-transfected with flashBACULTRA (Oxford Expression Technologies, Oxford, United Kingdom) baculovirus DNA onto Spodoptera frugiperda Sf9 cells to obtain recombinantly expressed HIS-GST-SOX18. High Five cells (BTI-TN-5B1-4) in Sf-900™ II serum-free medium were infected at cell density of 1.5×10^6 cells/mL with a multiplicity of infection (MOI) of 5 PFU/cell, and incubated at 21° C. for 144 h before harvest. The cell pellet from 100 mL of expression culture was resuspended in 30 mL of phosphate lysis buffer (50 mM sodium phosphate, 500 mM sodium chloride, 1% Triton X-100, 2 mM magnesium chloride, one tablet of cOmplete Protease Inhibitor Cocktail, pH 7.5) and sonicated on ice for 20 s. The cell lysate was centrifuged at 17,000×g for 40 min at 4° C. Supernatant was incubated with Benzonase Nuclease (Merck Millipore) for 1 h at room temperature for DNA degradation, before being mixed with 500 μL GST resin (GE Healthcare Life Sciences, Sweden) and incubated on a rotating wheel at room temperature for 1 h. The sample was centrifuged at 500×g for 1 min to remove unbound protein in the supernatant. The resin was further washed with 50 resin volumes (RV) wash buffer (50 mM sodium phosphate, 500 mM NaCl, pH 7.5), with unbound protein removed by centrifugation as above. Bound protein was eluted from the resin with 3×1 RV elution buffer (50 mM Tris, 500 mM NaCl, 10 mM reduced glutathione, pH 8.0), collecting the supernatant by centrifugation as above.
as §1, §2

16 compounds from patent publication US20240002326A1, “COMPOUNDS AND USE THEREOF IN METHODS OF TREATMENT” (The University of Queensland, priority 2016, published 2024) can be followed below.

Sequence of full-length mouse SOX18 (P43680 whole entry): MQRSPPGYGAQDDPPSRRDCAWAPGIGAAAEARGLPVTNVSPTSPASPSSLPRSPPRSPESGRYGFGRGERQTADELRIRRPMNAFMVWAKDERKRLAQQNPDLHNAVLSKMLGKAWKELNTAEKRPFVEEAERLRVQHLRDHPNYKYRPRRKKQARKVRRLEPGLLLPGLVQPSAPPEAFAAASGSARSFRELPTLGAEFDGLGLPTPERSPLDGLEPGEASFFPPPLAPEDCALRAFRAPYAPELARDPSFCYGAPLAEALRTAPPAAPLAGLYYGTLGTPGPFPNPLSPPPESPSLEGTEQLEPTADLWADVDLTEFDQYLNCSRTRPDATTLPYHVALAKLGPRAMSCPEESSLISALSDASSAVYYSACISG

For the compound `Cc1cc(O)c(C(=O)O)c(CCc2ccc3ccccc3c2)c1` [Sm36, 2-hydroxy-4-methyl-6-(2-(naphthalen-2-yl)ethyl)benzoic acid], the remaining activity at 50 µM on SOX18[109] HMG fragment turned out to be 10.9 ± 9.6%. In addition, at SOX18[109] HMG fragment, the remaining activity at 200 µM was -3.9 ± 6.8%. In addition, the 50% cytotoxic concentration (CC50) at 24 h in data set [1] is 39.9 µM; in data set [2] it was 37.7 µM.

For `COc1cc(O)c(C(=O)O)c(CCc2ccc3ccccc3c2)c1` [Sm29, 2-hydroxy-4-methoxy-6-(2(naphthalen-2-yl)ethyl)benzoic acid], on SOX18[109] HMG fragment, the remaining activity at 50 µM was determined as 73 ± 1.9% and the remaining activity at 200 µM came to 2 ± 7.2%. In addition, in data set [1], the CC50 at 24 h stood at 64.4 µM. Also, in data set [2], the midpoint of cytotoxicity, the CC50 at 24 h, lay at 71.2 µM.

Regarding `COc1cc(/C=C/c2ccccc2)cc(OC)c1OC` [Sm38, (E)-1,2,3-trimethoxy-5-styrylbenzene], at SOX18[109] HMG fragment, the remaining activity at 50 µM was 102 ± 11.2% and the remaining activity at 200 µM came out at 120 ± 6.6%. This compound returned a CC50 at 24 h in data set [1] of more than 100 µM. This compound also yielded a CC50 at 24 h in data set [2] of more than 100 µM.

Consider `Oc1cc(CCc2ccc3ccccc3c2)cc(O)c1O` [Sm44, 5-(2-(naphthalen-2-yl)ethyl)benzene-1,2,3-triol], for which, at SOX18[109] HMG fragment, the remaining activity at 50 µM stood at 108 ± 10.1%; the remaining activity at 200 µM came to 53.5 ± 9.6%; the “SOX18-DNA binding inhibition (FP, words)” value is “not active”. The compound also returned a CC50 at 24 h in data set [1] of more than 100 µM. In data set [2], this compound had a CC50 at 24 h of more than 100 µM.

`CCCCCCCCCCCCCc1cccc(O)c1C(=O)O` [Sm2, 6-tridecyl salicylic acid]: on full-length mouse SOX18, the “FP IC50 ± SD” value is on record as “high micromolar range” and the IC50 is 341 ± 1.1 µM.

Regarding `CCN(CC)C(=O)c1c(/C=C/c2ccc3ccccc3c2)cccc1OC` [Sm16, (E)-N,N-diethyl-2-methoxy-6-(2-(naphthalene-2-yl)vinyl)benzamide], at SOX18[109] HMG fragment, the remaining activity at 50 µM worked out at 99.3 ± 6.2% and the remaining activity at 200 µM was 109 ± 4.9%. In data set [1], this compound showed a CC50 at 24 h of more than 100 µM.

For `COc1cc(CCc2ccc3ccccc3c2)cc(OC)c1OC` [Sm43, 2-(3,4,5-trimethoxyphenethyl)naphthalene], the remaining activity at 50 µM at SOX18[109] HMG fragment came out at 106 ± 9.5%. Further, the remaining activity at 200 µM on SOX18[109] HMG fragment worked out at 113 ± 3.6%. Moreover, the CC50 at 24 h in data set [1] and in data set [2] was more than 100 µM each time.

With `O=C(O)c1c(O)cccc1CCc1ccccc1` [Sm22, 2-hydroxy-6-phenethylbenzoic acid], on SOX18[109] HMG fragment, the remaining activity at 50 µM was 98.1 ± 6.1%; the remaining activity at 200 µM turned out to be 93.1 ± 9.5%; the “SOX18-DNA binding inhibition (FP, words)” value is reported as “completely eliminated all activity”. Besides, the CC50 at 24 h in data set [1] was more than 100 µM. For the same compound, the CC50 at 24 h in data set [2] is more than 100 µM.

On to `COc1cc(CCc2ccc3ccccc3c2)c(C(=O)O)c(OC)c1` [Sm30, 2,4-dimethoxy-6-(2-(naphthalen-2-yl)ethyl)benzoic acid], for which, on SOX18[109] HMG fragment, the remaining activity at 50 µM is 99 ± 7.6% and the remaining activity at 200 µM was 109 ± 2.8%. In addition, the CC50 at 24 h in data set [1] is more than 100 µM. Besides, the CC50 at 24 h in data set [2] is more than 100 µM.

Turning to `COc1cc(CCc2ccccc2)cc(OC)c1OC` [Sm39, 1,2,3-trimethoxy-5-phenethylbenzene], at SOX18[109] HMG fragment, the remaining activity at 50 µM was found to be 102 ± 9.7% and the remaining activity at 200 µM was found to be 117 ± 8.1%. The same compound yielded a CC50 at 24 h in data set [1] of more than 100 µM. The compound further returned a CC50 at 24 h in data set [2] of more than 100 µM.

On to `CCCCCCCCCCCc1cccc(O)c1C(=O)O` [Sm1, 6-undecyl salicylic acid], for which, at full-length mouse SOX18, the “FP IC50 ± SD” value is on record as “high micromolar range” and the IC50 worked out at 348 ± 1.1 µM.

Consider `Cc1cc(O)c(C(=O)O)c(/C=C/c2ccc3ccccc3c2)c1` [Sm35, (E)-2-hydroxy-4-methyl-6-(2-(naphthalen-2-yl)vinyl)benzoic acid], for which, at SOX18[109] HMG fragment, the remaining activity at 50 µM is -1.5 ± 3.5% and the remaining activity at 200 µM is -3.7 ± 7.9%. In data set [1], this compound gave a CC50 at 24 h of 52.2 µM. Also, it took 30.3 µM to reach half-maximal cytotoxicity in data set [2] (CC50 at 24 h).

Consider `O=C(O)c1c(O)cccc1/C=C/c1ccccc1` [Sm21, (E)-2-hydroxy-6-styrylbenzoic acid], for which, on SOX18[109] HMG fragment, the remaining activity at 50 µM came to 103 ± 8.8% and the remaining activity at 200 µM was 98.1 ± 2.1%. Also, the CC50 at 24 h in data set [1] is more than 100 µM. The compound further showed a CC50 at 24 h in data set [2] of more than 100 µM.

Take `O=C(O)c1c(O)cc(Cl)cc1/C=C/c1ccc2ccccc2c1` [Sm32, (E)-4-chloro-2-hydroxy-6-(2-(naphthalen-2-yl)vinyl)benzoic acid]: on SOX18[109] HMG fragment, the remaining activity at 50 µM came out at 3.9 ± 6% and the remaining activity at 200 µM amounted to 10.9 ± 5.2%. Also, in data set [1], the CC50 at 24 h is 37.6 µM. The CC50 at 24 h in data set [2] worked out at 24 µM.

On to `CCN(CC)C(=O)c1c(/C=C\c2ccc3ccccc3c2)cccc1OC` [Sm15, (Z)-N,N-diethyl-2-methoxy-6-(2-(naphthalen-2-yl)vinyl)benzamide], for which, at SOX18[109] HMG fragment, the remaining activity at 50 µM was 103 ± 7.4% and the remaining activity at 200 µM turned out to be 121 ± 4.7%. For the same compound, the CC50 at 24 h in data set [1] is more than 100 µM.

Regarding `COc1cc(/C=C/c2ccc3ccccc3c2)c(C(=O)O)c(OC)c1` [Sm27, (E)-2,4-dimethoxy-6-(2-(naphthalen-2-yl)vinyl)benzoic acid], the remaining activity at 50 µM on SOX18[109] HMG fragment turned out to be 97 ± 6.1%. Moreover, on SOX18[109] HMG fragment, the remaining activity at 200 µM came out at 92.8 ± 21.7%. Further, the CC50 at 24 h in data set [1] and in data set [2] was more than 100 µM in each case.
